In BigSolDB 2.1:

NC(=O)c1nc(F)cnc1O
solubility (mole fraction)
Conditions	293.15 K	298.15 K	303.15 K	308.15 K	313.15 K	318.15 K	323.15 K	328.15 K	333.15 K
in DMF	0.0109	0.0116	0.0128	0.0133	0.0156	0.0183	0.0212	0.0234	0.026
in acetone	0.00417	0.00458	0.00492	0.00523	0.00585	0.00638	0.00699	0.00772	0.00859
in acetonitrile	0.00183	0.00188	0.00193	0.00207	0.00226	0.00242	0.00268	0.00285	0.00293
in dichloromethane	0.00231	0.00271	0.00277	0.00284	0.00328	0.00359	0.00398	0.00462	0.00514
in ethanol	0.00206	0.00238	0.00252	0.00279	0.00318	0.00339	0.00366	0.00395	0.00458
in ethyl acetate	0.0036	0.00396	0.00442	0.00449	0.00497	0.00525	0.00572	0.00599	0.00662
in isopropanol	0.00185	0.00196	0.00209	0.00236	0.00268	0.00284	0.00315	0.00318	0.00326
in methanol	0.00147	0.00152	0.00156	0.00163	0.00169	0.00176	0.00182	0.00195	0.00199
in methyl acetate	0.00397	0.00408	0.00464	0.00499	0.00521	0.00564	0.00597	0.00624	0.00778
in n-butanol	0.00263	0.00296	0.00318	0.00346	0.00385	0.00409	0.00463	0.00499	0.00537
in n-butyl acetate	0.00502	0.00513	0.00582	0.00641	0.00681	0.00741	0.00839	0.00894	0.00986
in n-propanol	0.00188	0.00197	0.00225	0.00258	0.00276	0.00299	0.00316	0.00349	0.00395
